Bounds are passed on as bounds.

Here are results for nine molecules from US5580860A, “Pharmaceutical composition containing 2-amino-6-chloropurine-9-β-D-2',3'-dideoxyribofuranoxside” (priority 1989, dated 1996).

The subject of series [1] is HIV. The conditions noted are these: compared with AZT; cited from earlier work.
Series [2] has as its system production of reverse transcriptase (HIV). The conditions noted are these: J. Med. Chem., 32, 1135 (1989), cited from earlier work.
Series [3] relates to HIV. The conditions noted are these: J. Biol. Chem., 263, 5870 (1988); cited from earlier work.
The test system of series [4] is cells. As to conditions: J. Med. Chem., 32, 1135 (1989), cited from earlier work.
For series [5], the system named is cells. As to conditions: read-out: concentration range from which cytotoxicity appears; J. Biol. Chem., 263, 5870 (1988); cited from earlier work.
Series [6] relates to AIDS virus (HIV) in ATH8 cells. Description: Antivirus test (1), anti-HIV effect in ATH8 cells. Type of series: cell-based. The conditions noted are these: for IC100: read-out: complete inhibition concentration for HIV. As for the experimental part:
(§1) Namely, after pretreatment beforehand with polybrene (made by Sigma Co.), 2×10^5 ATH 8 cells were exposed to AIDS virus (HIV) for 45 minutes to infect (the number of HIV was made so as to be 2000 per ATH8 cell). Successively, the infected cells were suspended into every 1 ml of respective media containing interleukin 2 (IL-2) and being added with anti-HIV agent in various concentrations and into 1 ml of medium containing IL-2 alone and not containing anti-HIV agent at any rate.
(§2) These were cultured at 37° C. in a mixed gas comprising 5% carbon dioxide and 95% air.
(§3) The cells for reference were similarly prepared except allowing to infect with AIDS virus (HIV).
(§4) After 5 days, whole number of cells was counted by hemocytometer method based on the dyeing with trypan blue.

For a further series, the system named is ATH8 cells. Description: Cytotoxicity in the anti-HIV test (ATH8 cells). As to conditions: in words. Type of series: cell-based. As for the experimental part: as §1, §2, §3, §4
The nature of series [7]: Cytotoxicity in the anti-HIV test (ATH8 cells). As to conditions: human, ath8 cells; DMSO present (1% at 200 μM); attributed to influence of DMSO; read-out: concentration at which cytotoxicity appears. Type of series: cell-based. How it is done: as §1, §2, §3, §4
Series [8] deals with p24 gag protein of HIV (H9 cells). Description: Antivirus test (2), expression of p24 gag protein in HIV-infected H9 cells. Type of series: cell-based. As for the experimental part: Namely, HIV-infected H9 cells added with anti-HIV agent in various concentrations were cultured for 8 days and 9 days, respectively, to assay the rate (%) of the target H9 cells expressing p24 gag protein of HIV. Measurement was made by a murine monoclonal antibody (M26) method.

Series [9] can be described thus: Lipophilicity test, partition coefficient by shake-flask method. The conditions noted are these: n-octanol / phosphate buffer pH 7.4, shake-flask, HPLC. Type of series: physicochemical.
Protocol: As a method for determining the extent of lipophilicity, it is a general rule to measure the partition coefficient (P) in water-n-octanol. Thus, the lipophilicity test of 2-amino-6-chloropurine-9-β-2',3'-dideoxyribofuranoside concerned with the invention was performed by the method of using partition coefficient P by shake-flask method (J. Pharm. Pharmacol., 39, 253 (1987)).
Namely, n-octanol and phosphate buffer (pH 7.4) were transferred into a separatory funnel and shaken for 3 hours with a shaker, which was then allowed to stand for 12 hours to separate respectively. Into 50 ml of n-octanol-saturated buffer thus obtained was dissolved 1 mg of sample (dried for 12 hours at 50° C. in a vacuum dryer) and 0.5 ml of this solution were taken as a sample for quantitative determination. Remaining 49.5 ml of n-octanol-saturated buffer and 49.5 ml of buffer-saturated n-octanol were transferred into a separatory funnel.
After shaking for 3 hours with a shaker, this was allowed to stand for 2 hours and then centrifuged (1500 rpm, 15 minutes). After gently removing the n-octanol layer, the sample for quantitative determination was taken.
The partition coefficient P is defined as follows:
Co: Concentration of sample in buffer before shaking
Cw: Concentration of sample in buffer after shaking
The mark [10] stands for this setting: Human immunodeficiency virus 1, ATH-8, 120 h, ATH8 cells, 5 days.

Turning to `Nc1ncnc2c1ncn2[C@H]1CC[C@@H](CO)O1` [DDA, 2',3'-dideoxyadenosine], in the series on HIV [1], the “anti-HIV effect in vitro” value is reported as “higher anti-HIV effect in vitro than that of AZT”.
For `Nc1nc(Cl)nc2c1ncn2[C@H]1CC[C@@H](CO)O1` [2-chloro-2',3'-dideoxyadenosine], the “anti-HIV effect at 2 μM” value in series [2] (2 μM) is given as “no effect at all”. For the same molecule, in series [2] (100 μM), the “inhibition of the production of reverse transcriptase at 100 μM” value was 97%. In addition, the “concentration exhibiting HIV inhibition effect” value in the series with HIV [3] was 1 to 10 µM. Also, the “cytotoxicity at 100 μM” value in the series with cells [4] (100 μM) was 23%. Moreover, the MCC in the series on cells [5] was 1 to 10 µM.
For the molecule `Nc1nc(Cl)nc2c1ncn2[C@H]1C=C[C@@H](CO)O1` [2-chloro-2',3'-didehydro-2',3'-dideoxyadenosine], in [2] (20 μM), the “inhibition of the production of reverse transcriptase at 20 μM” value is reported as 75%. In the series with cells [4] (over 20 μM), the “toxicity at a concentration over 20 μM” value is “the toxicity is so strong that the test cannot be performed”.
Take `Nc1nc(Br)nc2c1ncn2[C@H]1CC[C@@H](CO)O1` [2-bromo-2',3'-dideoxyadenosine]: the “concentration exhibiting HIV inhibition effect” value in the series on HIV [3] was 1 to 10 µM. Besides, the MCC with cells [5] is 1 to 10 µM.
As for `Nc1nc(Cl)c2ncn([C@H]3CC[C@@H](CO)O3)c2n1` [6-Cl-DDG, 2-amino-6-chloropurine-9-β-D-2',3'-dideoxyribofuranoside], the “anti-HIV effect compared with DDG” value in [6] (ATH8 cells, vs DDG) was “equal or higher anti-HIV effect compared with DDG”; in series [8] (vs DDG), “equal or higher anti-HIV effect compared with DDG”. The IC100 in series [6] (setting [10]) worked out at 5 µM; in series [8] (Human immunodeficiency virus 1, 8th and 9th day, read-out: concentration almost completely inhibiting the expressing of p24) it was 10 µM. In addition, the minimal effective concentration in [6] (Human immunodeficiency virus 1, ATH-8, 120 h, ATH8 cells, 5 days, read-out: concentration exhibiting HIV inhibition effect) is 2 µM; in [8] (Human immunodeficiency virus 1, 8th and 9th day, read-out: concentration exhibiting inhibition effect on the expressing of p24 antigen) it was 3 µM. Also, in series [6] (in words), the “anti-AIDS virus effect (anti-HIV effect)” value is “high anti-AIDS virus effect (anti-HIV effect)”. In addition, the cytotoxicity result in the series with ATH8 cells is reported as “low cytotoxicity”. Moreover, the MCC at 120 h in series [7] was above 200 µM.
Regarding `Nc1nc(F)nc2c1ncn2[C@H]1CC[C@@H](CO)O1` [2-fluoro-2',3'-dideoxyadenosine], in the series on HIV [3], the “concentration exhibiting HIV inhibition effect” value was 1 to 10 µM. Further, the MCC with cells [5] is 1 to 10 µM.
Take `OC[C@@H]1CC[C@H](n2cnc3c(O)ncnc32)O1` [DDI, 2',3'-dideoxyinosine]: the “anti-HIV effect in vitro” value in the series on HIV [1] is recorded as “higher anti-HIV effect in vitro than that of AZT”. In [9], this molecule showed a logD of -1.22.
`Nc1nc2c(ncn2[C@H]2CC[C@@H](CO)O2)c(=O)[nH]1` [DDG, 2'3'-dideoxyguanosine]: the IC100 in [6] (setting [10]) stood at 10 µM. The logD in series [9] was -1.06.
Take `Nc1ccn([C@H]2CC[C@@H](CO)O2)c(=O)n1` [DDC, 2',3'-dideoxycytidine]: in the series with HIV [1], the “anti-HIV effect in vitro” value is recorded as “higher anti-HIV effect in vitro than that of AZT”.

A word on the logD: it is the decadic logarithm of the distribution of all forms, ionised or not, between an organic phase and buffer at a given pH. Higher therefore signals higher lipophilicity.
